The target of experiment [1] is recombinant human S1P1 receptor (Homo sapiens, UniProt P21453). Put plainly: GTPγS assay to determine EC50 values. The format is biochemical. Conditions: 35S-GTPγS binding, membrane preparations of CHO cells expressing recombinant human S1P1 receptor. As for the experimental part:
GTPγS binding assays are performed in 96 well microtiter plates (Nunc, 442587) in a final volume of 200 μl, using membrane preparations of CHO cells expressing recombinant human S1P1 receptor. Assay conditions are 20 mM Hepes (Fluka, 54461), 100 mM NaCl (Fluka, 71378), 5 mM MgCl2 (Fluka, 63064), 0.1% BSA (Calbiochem, 126609), 1 μM GDP (Sigma, G-7127), 2.5% DMSO (Fluka, 41644), 50 pM ^355-GTPγS (Amersham Biosciences, SJ1320). The pH is 7.4. Test compounds are dissolved and diluted in 100% DMSO and pre-incubated at room temperature for 30 min in 150 μl of the above assay buffer, in the absence of ^355-GTPγS. After addition of 50 μl of ^355-GTPγS, the assay is incubated for 1 h at rt. The assay is terminated by transfer of the reaction mixture to a Multiscreen plate (Millipore, MAHFC1H60) using a cell harvester from Packard Biosciences, and the plates are washed with ice-cold 10 mM Na2HPO4/NaH2PO4 (70%/30%), dried, sealed at the bottom and, after addition of 25 μl MicroScint20 (Packard Biosciences, order #6013621), sealed on the top. Membrane-bound ^35S-GTPγS is measured with a TopCount from Packard Biosciences.
EC50 is the concentration of agonist inducing 50% of the maximal specific ^35S-GTPγS binding. Specific binding is determined by subtracting non-specific binding from maximal binding. Maximal binding is the amount of cpm bound to the Multiscreen plate in the presence of 10 μM of S1P. Non-specific binding is the amount of binding in the absence of an agonist in the assay.

For experiment [2], the system named is circulating lymphocytes. As to the kind of experiment: Assessment of in vivo efficacy: circulating lymphocytes after oral administration. On the set-up: species or system normotensive male Wistar rats. Conditions: 3 h after oral administration of 10 mg/kg, male Wistar rats, compared to vehicle-treated group. How it is done: The efficacy of the compounds of formula (I) is assessed by measuring the circulating lymphocytes after oral administration of 3 to 30 mg/kg of a compound of formula (I) to normotensive male Wistar rats. The animals are housed in climate-controlled conditions with a 12 h-light/dark cycle, and have free access to normal rat chow and drinking water.
Blood is collected before and 3, 6 and 24 h after drug administration. Full blood is subjected to hematology using Advia Hematology system (Bayer Diagnostics, Zurich, Switzerland).
All data are presented as mean±SEM. Statistical analyses are performed by analysis of variance (ANOVA) using Statistica (StatSoft) and the Student-Newman-Keuls procedure for multiple comparisons. The null hypothesis is rejected when p<0.05.

pEC50: −log10 of the molar value.

recombinant human S1P1 receptor, sequence (P21453 whole entry): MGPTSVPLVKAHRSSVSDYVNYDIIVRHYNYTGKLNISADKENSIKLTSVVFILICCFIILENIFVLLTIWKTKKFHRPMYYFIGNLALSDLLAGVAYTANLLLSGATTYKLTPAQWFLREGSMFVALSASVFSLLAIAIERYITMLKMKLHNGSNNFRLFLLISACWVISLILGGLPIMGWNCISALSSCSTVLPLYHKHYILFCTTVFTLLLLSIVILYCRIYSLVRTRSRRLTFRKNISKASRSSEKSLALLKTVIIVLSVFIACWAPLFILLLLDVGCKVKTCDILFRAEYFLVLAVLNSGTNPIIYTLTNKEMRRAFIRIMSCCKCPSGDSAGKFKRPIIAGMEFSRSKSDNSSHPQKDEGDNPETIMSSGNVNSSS

`CCc1cc(-c2noc(-c3cc(C)cc(CN4CCCC4)c3)n2)cc(C)c1OC[C@@H](O)CNC(=O)CO` [Example 22, N—((S)-3-{2-ethyl-6-methyl-4-[5-(3-methyl-5-pyrrolidin-1-ylmethyl-phenyl)-[1,2,4]oxadiazol-3-yl]-phenoxy}-2-hydroxy-propyl)-2-hydroxy-acetamide]: the negative logarithm of the EC50 (pEC50) in experiment [1] was 8.15. In addition, in experiment [2], the Lymphocyte counts is −61.0%. As for `CCc1cc(-c2noc(-c3cc(C)cc(CN(C)CC)c3)n2)cc(C)c1OC[C@@H](O)CNC(=O)CO` [Example 16, N—{(S)-3-[2-ethyl-4-(5-{3-[(ethyl-methyl-amino)-methyl]-5-methyl-phenyl}-[1,2,4]oxadiazol-3-yl)-6-methyl-phenoxy]-2-hydroxy-propyl}-2-hydroxy-acetamide], the pEC50 in experiment [1] is 8.57. Further, in experiment [2], the Lymphocyte counts is recorded as −62.1%. On to `CCc1cc(CN(C)CC(C)C)cc(-c2nc(-c3cc(C)c(OC[C@@H](O)CNC(=O)CO)c(CC)c3)no2)c1` [Example 53, N—{(S)-3-[2-ethyl-4-(5-{3-ethyl-5-[(isobutyl-methyl-amino)-methyl]-phenyl}-[1,2,4]oxadiazol-3-yl)-6-methyl-phenoxy]-2-hydroxy-propyl}-2-hydroxy-acetamide], for which the Lymphocyte counts in experiment [2] was −61.0%.

Take `CCc1cc(-c2nc(-c3cc(C)c(OC[C@@H](O)CNC(=O)CO)c(CC)c3)no2)ccc1CN(C)C` [Example 99, N—((S)-3-{4-[5-(4-dimethylaminomethyl-3-ethyl-phenyl)-[1,2,4]oxadiazol-3-yl]-2-ethyl-6-methyl-phenoxy}-2-hydroxy-propyl)-2-hydroxy-acetamide]: the Lymphocyte counts in experiment [2] was −61.0%. On to `CCCCN(C)Cc1cc(C)cc(-c2nc(-c3cc(C)c(OC[C@@H](O)CNC(=O)CO)c(CC)c3)no2)c1` [Example 18, N—{(S)-3-[4-(5-{3-[(butyl-methyl-amino)-methyl]-5-methyl-phenyl}-[1,2,4]oxadiazol-3-yl)-2-ethyl-6-methyl-phenoxy]-2-hydroxy-propyl}-2-hydroxy-acetamide], for which the pEC50 in experiment [1] was 8.48. Moreover, in experiment [2], the Lymphocyte counts was −63.0%. With `CCc1cc(-c2noc(-c3cc(CN4CCCC4)cc(C(C)C)c3)n2)cc(C)c1OC[C@@H](O)CNC(=O)CO` [Example 75, N—((S)-3-{2-ethyl-4-[5-(3-isopropyl-5-pyrrolidin-1-ylmethyl-phenyl)-[1,2,4]oxadiazol-3-yl]-6-methyl-phenoxy}-2-hydroxy-propyl)-2-hydroxy-acetamide], the pEC50 in experiment [1] was 8.14. Regarding `CCc1cc(-c2noc(-c3cc(C)cc(CN(C)CC(C)C)c3)n2)cc(C)c1OC[C@@H](O)CNC(=O)CO` [Example 19, N—{(S)-3-[2-ethyl-4-(5-{3-[(isobutyl-methyl-amino)-methyl]-5-methyl-phenyl}-[1,2,4]oxadiazol-3-yl)-6-methyl-phenoxy]-2-hydroxy-propyl}-2-hydroxy-acetamide], the pEC50 in experiment [1] is 8.66.

The record behind these values is patent publication US8410151B2, “Aminomethyl benzene derivatives” (Actelion Pharmaceuticals Ltd, priority 2009, dated 2013).
